Tests used:
Experiment in all cases: relative viability (nuclei count vs DMSO), 5 days (fraction); higher = more cells survive
XMD13-2 + Decitabine = compound: C1CC1C(=O)NC2=NNC3=C2C=CC(=C3)C4=CC(=CC=C4)C(=O)NC5CC5 [XMD13-2] + Nc1ncn([C@H]2C[C@H](O)[C@@H](CO)O2)c(=O)n1 [Decitabine] (partner 2 µM)
Outline: (§1)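 Lung cancer cell lines were pin-tool dosed in 1536-well plates on the day after seeding, with either a lone drug or a fixed anchor-drug dose plus five library-drug doses (not always all listed) in √10 steps. Nuclei were counted on 4× images after 5 days. Relative viability is the ratio of treated-well to vehicle-well nuclei counts, with each value a median of duplicate plates.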

ALW-II-49-7 + Navitoclax = compound: Cc1ccc(C(=O)Nc2cccc(C(F)(F)F)c2)cc1Nc1cncc(C(N)=O)c1 [ALW-II-49-7] + CC1(C)CCC(c2ccc(Cl)cc2)=C(CN2CCN(c3ccc(C(=O)NS(=O)(=O)c4ccc(N[C@H](CCN5CCOCC5)CSc5ccccc5)c(S(=O)(=O)C(F)(F)F)c4)cc3)CC2)C1 [Navitoclax] (partner 0.5 µM)
Outline: as §1

ALW-II-49-7 + Foretinib = compound: Cc1ccc(C(=O)Nc2cccc(C(F)(F)F)c2)cc1Nc1cncc(C(N)=O)c1 [ALW-II-49-7] + COc1cc2c(Oc3ccc(NC(=O)C4(C(=O)Nc5ccc(F)cc5)CC4)cc3F)ccnc2cc1OCCCN1CCOCC1 [Foretinib] (partner 0.25 µM)
Outline: as §1

Dasatinib + Foretinib = compound: Cc1nc(Nc2ncc(C(=O)Nc3c(C)cccc3Cl)s2)cc(N2CCN(CCO)CC2)n1 [Dasatinib] + COc1cc2c(Oc3ccc(NC(=O)C4(C(=O)Nc5ccc(F)cc5)CC4)cc3F)ccnc2cc1OCCCN1CCOCC1 [Foretinib] (partner 0.25 µM)
Outline: as §1

| Cell Line | relative viability (XMD13-2 + Decitabine; first compound 0.05 µM) | relative viability (XMD13-2 + Decitabine; first compound 0.1581 µM) | relative viability (XMD13-2 + Decitabine; first compound 0.5 µM) | relative viability (XMD13-2 + Decitabine; first compound 5 µM) | relative viability (ALW-II-49-7 + Navitoclax; first compound 0.08 µM) | relative viability (ALW-II-49-7 + Navitoclax; first compound 0.253 µM) | relative viability (ALW-II-49-7 + Navitoclax; first compound 0.8 µM) | relative viability (ALW-II-49-7 + Navitoclax; first compound 2.53 µM) | relative viability (ALW-II-49-7 + Navitoclax; first compound 8 µM) | relative viability (ALW-II-49-7 + Foretinib; first compound 0.08 µM) | relative viability (ALW-II-49-7 + Foretinib; first compound 0.253 µM) | relative viability (ALW-II-49-7 + Foretinib; first compound 0.8 µM) | relative viability (ALW-II-49-7 + Foretinib; first compound 2.53 µM) | relative viability (ALW-II-49-7 + Foretinib; first compound 8 µM) | relative viability (Dasatinib + Foretinib; first compound 0.005 µM) | relative viability (Dasatinib + Foretinib; first compound 0.01581 µM) | relative viability (Dasatinib + Foretinib; first compound 0.05 µM) | relative viability (Dasatinib + Foretinib; first compound 0.1581 µM) | relative viability (Dasatinib + Foretinib; first compound 0.5 µM) | relative viability (XMD13-2 + Decitabine; first compound 1.581 µM) |
| --- | --- | --- | --- | --- | --- | --- | --- | --- | --- | --- | --- | --- | --- | --- | --- | --- | --- | --- | --- | --- |
| EKVX | 0.395 | 0.32 | 0.419 | 0.307 | 0.942 | 0.888 | 0.832 | 0.502 | 1.08 | 0.781 | 0.753 | 0.898 | 1.05 | 0.746 | 0.757 | 0.84 | 0.753 | 0.455 | 0.135 | – |
| RERF-LC-KJ | 0.813 | 0.747 | 0.711 | 0.713 | 0.876 | 1.27 | 0.938 | 1.05 | 0.866 | 0.84 | 0.874 | 0.941 | 0.933 | 0.902 | 0.888 | 0.831 | 0.989 | 0.824 | 0.779 | 0.702 |
| NCI-H1755 | 0.703 | 0.719 | 0.665 | 0.667 | 0.976 | 1.03 | 0.976 | 0.884 | 0.759 | 0.875 | 1.06 | 0.807 | 0.931 | 0.825 | 0.778 | 0.706 | 0.617 | 0.463 | 0.185 | 0.736 |
| NCI-H661 | 0.611 | 0.56 | 0.56 | 0.461 | – | – | – | – | – | 1.17 | 1.08 | 0.954 | 1.01 | 0.884 | 1.02 | 1.03 | 0.964 | 0.735 | 0.599 | 0.537 |
